{"source": "patent US9221822B2", "about": "“Thiazolopyrimidine modulators as immunosuppressive agents” (Katholieke Universiteit Leuven, K.U.Leuven R&D, priority 2009, dated 2015)", "data": [{"tested_on": "Human peripheral blood mononuclear cells (PBMCs) as Responder cells, RPMI 1788 Stimulator cells", "assay": "Mixed Lymphocyte Reaction (MLR) test", "assay_type": "cell-based", "settings": "Homo sapiens, RPMI-1788, lowest concentration giving 50% inhibition of the MLR; 6 days coculture, 3H-thymidine incorporation", "procedure,_shortened": "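Human PBMC responders (0.12×10^6) were cocultured 6 days with mitomycin C-treated RPMI 1788 stimulators (0.045×10^6) and compound in RPMI 1640 with 10% FCS, in triplicate. A ^3H-thymidine pulse on day 5, harvested 18 h later, measured proliferation (cpm), converted to % inhibition versus a compound-free MLR.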", "units": {"IC50": "µM"}, "values": [{"smiles": "Nc1nc(NC2CCCN(C(=O)OCc3ccccc3)C2)c2nc(CCc3ccc(F)cc3)sc2n1", "note": "(centres unmarked) [Example 145, 5-amino-2-[2-(4-fluorophenyl)ethyl]-7-(1-benzyloxycarbonylpiperidin-3-ylamino)-thiazolo[5,4-d]pyrimidine]", "IC50": 4.35}, {"smiles": "Nc1nc(N2CCN(C(=O)c3ccc(Cl)cc3)CC2)c2nc(CCc3ccc(F)cc3)oc2n1", "note": "[Example 195, 5-amino-2-[2-(4-fluorophenyl)ethyl]-7-(4-[4-chlorobenzoyl]piperazin-1-yl)-oxazolo[5,4-d]pyrimidine]", "IC50": "> 10"}, {"smiles": "Cn1c(-c2ccc(F)cc2)nc2c(N3CCN(C(=O)COc4ccc(Cl)cc4)CC3)nc(N)nc21", "note": "[Example 430, 1-(4-(2-amino-8-(4-fluorophenyl)-9-methyl-9H-purin-6-yl)piperazin-1-yl)-2-(4-chlorophenoxy)ethanone]", "IC50": 0.36}, {"smiles": "COc1cccc(CCc2nc3c(N4CCN(C(=O)COc5ccc(Br)cc5)CC4)nc(N)nc3s2)c1", "note": "[Example 254, 1-(4-(5-amino-2-(3-methoxyphenethyl)thiazolo[5,4-d]pyrimidin-7-yl)piperazin-1-yl)-2-(4-bromophenoxy)ethanone]", "IC50": 1.22}, {"smiles": "Nc1nc(N2CCN(C(=O)CCc3ccccc3)CC2)c2cc(-c3ccc(F)cc3)sc2n1", "note": "[Example 343, 1-(4-(2-amino-6-(4-fluorophenyl)thieno[2,3-d]pyrimidin-4-yl)piperazin-1-yl)-3-phenylpropan-1-one]", "IC50": 6.99}, {"smiles": "Nc1nc(N2CCCN(C(=O)c3ccc(Cl)cc3)CC2)c2cc(-c3ccccc3)sc2n1", "note": "[Example 335, (4-(2-amino-6-phenylthieno[2,3-d]pyrimidin-4-yl)-1,4-diazepan-1-yl)(4-chlorophenyl)methanone]", "IC50": "> 10"}, {"smiles": "Cc1nc2c(N3CCN(C(=O)COc4ccc(Cl)cc4)CC3)nc(N)nc2[nH]1", "note": "[Example 400, 1-(4-(2-amino-8-methyl-9H-purin-6-yl)piperazin-1-yl)-2-(4-chlorophenoxy)ethanone]", "IC50": 0.45}, {"smiles": "Nc1nc(N2CC[C@@H](NC(=O)COc3ccc(Cl)cc3)C2)c2nc(CCc3ccc(F)cc3)sc2n1", "note": "[Example 143, 5-amino-2-[2-(4-fluorophenyl)ethyl]-7-(3-(R)-[2-(4-chlorophenoxy)-acetylamino]pyrrolidin-1-yl)-thiazolo[5,4-d]pyrimidine]", "IC50": "> 10"}, {"smiles": "CSc1nc2c(N3CCN(C(=O)COc4ccc(Cl)cc4)CC3)nc(N)nc2n1C", "note": "[Example 428, 1-(4-(2-amino-9-methyl-8-(methylthio)-9H-purin-6-yl)piperazin-1-yl)-2-(4-chlorophenoxy)ethanone]", "IC50": 0.3}, {"smiles": "Cc1cccc(OCC(=O)N2CCN(c3nc(N)nc4sc(-c5ccc(F)cc5)nc34)CC2)c1", "note": "[Example 211, 1-(4-(5-amino-2-(4-fluorophenyl)thiazolo[5,4-d]pyrimidin-7-yl)piperazin-1-yl)-2-(m-tolyloxy)ethanone]", "IC50": 0.052}, {"smiles": "Nc1nc(N2CCN(C(=O)c3ccc(Cl)cc3)CC2)c2nc(CCc3ccc(F)cc3)sc2n1", "note": "[Example 135, 5-amino-2-[2-(4-fluorophenyl)ethyl]-7-[4-(4-chlorobenzoyl)piperazin-1-yl]-thiazolo[5,4-d]pyrimidine]", "IC50": "> 10"}, {"smiles": "Cc1cccc(OCC(=O)N2CCN(c3nc(N)nc4sc(-c5ccccc5)cc34)CC2)c1", "note": "[Example 371, 1-(4-(2-amino-6-phenylthieno[2,3-d]pyrimidin-4-yl)piperazin-1-yl)-2-(m-tolyloxy)ethanone]", "IC50": 0.21}, {"smiles": "CC(=O)N1CCN(c2nc(N)nc3[nH]c(-c4ccc(F)cc4)nc23)CC1", "note": "[Example 408, 1-(4-(2-amino-8-(4-fluorophenyl)-9H-purin-6-yl)piperazin-1-yl)ethanone]", "IC50": "> 10"}, {"smiles": "Nc1nc(N2CCN(C(=O)COc3ccc(Cl)cc3)CC2)c2nc(-c3ccc(OC(F)(F)F)cc3)[nH]c2n1", "note": "[Example 395, 1-(4-(2-amino-8-(4-(trifluoromethoxy)phenyl)-9H-purin-6-yl)piperazin-1-yl)-2-(4-chlorophenoxy)ethanone]", "IC50": "> 10"}]}]}
